Laboratory results taken from EP0021678B1, “1-Sulpho-2-oxoazetidine derivatives, their production and pharmaceutical compositions thereof” (Takeda Chemical Industries, Ltd., priority 1979, dated 1981).
Like-named read-outs stand apart in the source and are kept apart here.

What was measured:
Assay in all cases: Anti-bacterial test, minimum inhibitory concentration on agar
Type in all cases: cell-based
[1] = system: Streptococcus pyogenes S—8; conditions: Streptococcus pyogenes S—8, medium B—TSA; for MIC: read-out: Minimum inhibitory concentration
Source text: (§1) The compound (I) thus obtained is useful as a drug, being active against certain gram-positive and gram-negative bacteria. By way of example, the compounds are active against the following micro-organisms.
(§2) The media and compounds employed in the anti-bacterial test are as follows: • Media: • TSA = Trypticase soy agar • [Baltimore Biologicals (U.S.A.)] • B-TSA = Blood trypticase soy agar • Compounds: • Compound A = Sodium 3-[2-(2-amino-4-thiazolyl)-2-methoxyiminoacetamido]-2-oxo-azetidine-1-sulphonate • Compound B = Sodium 3-[D(-)-N-(4-ethyl-2,3-dioxo-1-piperazinocarbonyl)-phenyl-glycin- amido]-2-oxoazetidine-1-sulphonate • Compound C = Sodium 3-[D(-)-N-(4-ethyl-2,3-dioxo-1-piperazinocarbonyl)phenylglycinamido]-3-methoxy-2-oxoazetidine-1-sulphonate • Compound D = Sodium 3-[2-(4-ethyl-2,3-dioxo-1-piperazinocarboxamido)-2-(2-amino-4-thiazolyl)-acetamido]-2-oxoazetidine-1-sulphonate • Compound E = Sodium 3-[DL-2-(4-ethyl-2,3-dioxo-1-piperazinocarboxamido)-2-thienylacetamido]-2-oxoazetidine-1-sulphonate • Compound F = Sodium 3-[D-2-(4-ethyl-2,3-dioxo-1-piperazinocarboxamido)-2-thienylacetamido]-2-oxoazetidine-1-sulphonate • Compound G = Sodium 3-[D-2-(4-n-octyl-2,3-dioxo-1-piperazinocarboxamido)-2-phenylacetamido]-2-oxoazetidine-1-sulphonate • Compound H = Sodium 3-[2-(4-n-octyl-2,3-dioxo-1-piperazinocarboxamido)-2-(2-amino-4-thiazolyl)-acetamido]-2-oxoazetidine-1-sulphonate • Compound I = Sodium 3-[D-2-[(2-oxo-3-furfurylideneaminoimidazolidin-1-yl)-carboxamido]-2-phenylacetamido]-2-oxoazetidine-1-sulphonate • Compound J = Sodium 3-[2-(4-n-octyl-2,3-dioxo-1-piperazinocarboxamido)-2-thienylacetamido]-2-oxoazetidine-1-sulphonate • Compound K = Sodium 3-[D-2-[[2-oxo-3-(thiophen-2-aidoimino)-imidazolidin-1-yl]-carboxamido]-2-phenylacetamido]-2-oxoazetidine-1-sulphonate • Compound L = Sodium 3-[2-[(2-oxo-3-furfurylideneaminoimidazolidin-1-yl)-carboxamido]-2-thienylacetamido]-2-oxoazetidine-1-sulphonate

[2] = system: Proteus vulgaris IFO 3988; conditions: Proteus vulgaris IFO 3988, medium TSA; for MIC: IFO3988, read-out: Minimum inhibitory concentration
Source text: as §1, §2

[3] = system: Candida albicans TA; conditions: Candida albicans TA, medium TSA; for MIC: read-out: Minimum inhibitory concentration
Source text: as §1, §2

[4] = system: Escherichia coli T-7; conditions: for MIC: T7, medium TSA
Source text: as §1, §2

[5] = system: Corynebacterium diphtheriae Toronto; conditions: Corynebacterium diphtheriae Toronto, medium B—TSA; for MIC: read-out: Minimum inhibitory concentration
Source text: as §1, §2

[6] = system: Citrobacter freundii IFO 12681; conditions: Citrobacter freundii IFO 12681, medium TSA; for MIC: IFO12681, read-out: Minimum inhibitory concentration
Source text: as §1, §2

[7] = system: Streptococcus pyogenes E—14; conditions: for MIC: read-out: Minimum inhibitory concentration
Source text: as §1, §2

[8] = system: Klebsiella pneumoniae DT; conditions: Klebsiella pneumoniae DT, medium TSA; for MIC: read-out: Minimum inhibitory concentration
Source text: as §1, §2

[9] = system: Pseudomonas aeruginosa IFO 3455
Source text: as §1, §2

[10] = system: Proteus mirabilis IFO 3849; conditions: Proteus mirabilis IFO 3849, medium TSA; for MIC: IFO3849, read-out: Minimum inhibitory concentration
Source text: as §1, §2

[11] = system: Staphylococcus aureus 1840; conditions: Staphylococcus aureus 1840, medium TSA; for MIC: read-out: Minimum inhibitory concentration
Source text: as §1, §2

[12] = system: Staphylococcus aureus 308A—1; conditions: for MIC: read-out: Minimum inhibitory concentration
Source text: as §1, §2

[13] = system: Bordetella bronchiseptica Sagami; conditions: Bordetella bronchiseptica Sagami, medium B—TSA; for MIC: read-out: Minimum inhibitory concentration
Source text: as §1, §2

[14] = system: Acinetobacter calcoaceticus IFO 13006; conditions: Acinetobacter calcoaceticus IFO 13006, medium TSA; for MIC: IFO13006, read-out: Minimum inhibitory concentration
Source text: as §1, §2

[15] = system: Serratia marcescens IFO 12648; conditions: Serratia marcescens IFO 12648, medium TSA; for MIC: IFO12648, read-out: Minimum inhibitory concentration
Source text: as §1, §2

[16] = system: Streptococcus faecium IFO 3128; conditions: Streptococcus faecium IFO 3128, medium B—TSA; for MIC: Enterococcus faecium, IFO3128, read-out: Minimum inhibitory concentration
Source text: as §1, §2

[17] = system: Escherichia coli O—111; conditions: medium TSA
Source text: as §1, §2

[18] = system: Escherichia coli NIHJ JC—2; conditions: Escherichia coli NIHJ JC—2, medium TSA; for MIC: read-out: Minimum inhibitory concentration
Source text: as §1, §2

[19] = system: Pseudomonas aeruginosa U 31; conditions: Pseudomonas aeruginosa U 31, medium TSA; for MIC: U31, read-out: Minimum inhibitory concentration
Source text: as §1, §2

[20] = system: Streptococcus pneumoniae Type I; conditions: for MIC: read-out: Minimum inhibitory concentration
Source text: as §1, §2

[21] = system: Staphylococcus aureus FDA209P; conditions: Staphylococcus aureus FDA209P; for MIC: Staphylococcus aureus, FDA209P, read-out: Minimum inhibitory concentration
Source text: as §1, §2

[22] = system: Streptococcus mitis America; conditions: for MIC: read-out: Minimum inhibitory concentration
Source text: as §1, §2

[23] = system: Enterobacter cloacae IFO 12937; conditions: Enterobacter cloacae IFO 12937, medium TSA; for MIC: IFO12937, read-out: Minimum inhibitory concentration
Source text: as §1, §2

[24] = system: Proteus morganii IFO 3168; conditions: Proteus morganii IFO 3168, medium TSA; for MIC: Morganella morganii, IFO3168, read-out: Minimum inhibitory concentration
Source text: as §1, §2

[25] = Streptococcus pyogenes E—14, medium B—TSA
[26] = IFO3455, Pseudomonas aeruginosa IFO 3455, medium TSA, read-out: Minimum inhibitory concentration
[27] = Staphylococcus aureus 308A—1, medium TSA
[28] = Streptococcus pneumoniae Type I, medium B—TSA
[29] = Streptococcus mitis America, medium B—TSA

CCCCCCCCN1CCN(C(=O)N[C@@H](C(=O)NC2CN(S(=O)(=O)O)C2=O)c2ccccc2)C(=O)C1=O (stereo partly drawn) [Compound G, Sodium 3-[D-2-(4-n-octyl-2,3-dioxo-1-piperazinocarboxamido)-2-phenylacetamido]-2-oxoazetidine-1-sulphonate]
MIC [1]: 1.56 µg/mL | MIC [2]: 0.78 µg/mL | MIC [3]: > 100 µg/mL | MIC [4]: > 100 µg/mL | MIC [5]: 25 µg/mL | MIC [6]: 3.13 µg/mL | MIC [7, 25]: 1.56 µg/mL | MIC [8]: 0.78 µg/mL | MIC [9, 26]: 1.56 µg/mL | MIC [10]: 3.13 µg/mL | MIC [11]: 25 µg/mL | MIC [12, 27]: 0.78 µg/mL | MIC [13]: > 100 µg/mL | MIC [14]: 3.13 µg/mL | MIC [15]: 1.56 µg/mL | MIC [16]: > 100 µg/mL | MIC [17]: 0.78 µg/mL | MIC [18]: 3.13 µg/mL | MIC [19]: 25 µg/mL | MIC [20, 28]: 3.13 µg/mL | MIC ([21]; medium B—TSA): 3.13 µg/mL | MIC ([21]; medium TSA): 1.56 µg/mL | MIC [22, 29]: 25 µg/mL | MIC [23]: 6.25 µg/mL | MIC [24]: 1.56 µg/mL

CCCCCCCCN1CCN(C(=O)NC(C(=O)NC2CN(S(=O)(=O)O)C2=O)c2csc(N)n2)C(=O)C1=O (centres unmarked) [Compound H, Sodium 3-[2-(4-n-octyl-2,3-dioxo-1-piperazinocarboxamido)-2-(2-amino-4-thiazolyl)-acetamido]-2-oxoazetidine-1-sulphonate]
MIC [1]: 1.56 µg/mL | MIC [2]: 6.25 µg/mL | MIC [3]: > 100 µg/mL | MIC [4]: > 100 µg/mL | MIC [5]: 0.78 µg/mL | MIC [6]: 12.5 µg/mL | MIC ([7]; Streptococcus pyogenes): 3.13 µg/mL | MIC [8]: 12.5 µg/mL | MIC [9, 26]: 12.5 µg/mL | MIC [10]: 25 µg/mL | MIC [11]: 12.5 µg/mL | MIC ([12]; Staphylococcus aureus): 3.13 µg/mL | MIC [13]: > 100 µg/mL | MIC [14]: 50 µg/mL | MIC [15]: 12.5 µg/mL | MIC [16]: > 100 µg/mL | MIC [17]: 3.13 µg/mL | MIC [18]: 12.5 µg/mL | MIC [19]: 50 µg/mL | MIC ([20]; Streptococcus pneumoniae): 3.13 µg/mL | MIC ([21]; medium B—TSA): 12.5 µg/mL | MIC ([21]; medium TSA): 6.25 µg/mL | MIC [22, 29]: 25 µg/mL | MIC [23]: 50 µg/mL | MIC [24]: 6.25 µg/mL

O=C(NC1CN(S(=O)(=O)O)C1=O)[C@H](NC(=O)N1CCN(N=Cc2ccco2)C1=O)c1ccccc1 (stereo partly drawn) [Compound I, Sodium 3-[D-2-[(2-oxo-3-furfurylideneaminoimidazolidin-1-yl)-carboxamido]-2-phenylacetamido]-2-oxoazetidine-1-sulphonate]
MIC [1]: 0.78 µg/mL | MIC [2]: 0.2 µg/mL | MIC [3]: > 100 µg/mL | MIC [4]: > 100 µg/mL | MIC [5]: 0.78 µg/mL | MIC [6]: 6.25 µg/mL | MIC [7, 25]: 0.39 µg/mL | MIC [8]: 0.2 µg/mL | MIC ([9]; Pseudomonas aeruginosa, IFO3455, read-out: Minimum inhibitory concentration): 3.13 µg/mL | MIC [10]: 1.56 µg/mL | MIC [11]: 50 µg/mL | MIC ([12]; Staphylococcus aureus): 3.13 µg/mL | MIC [13]: > 100 µg/mL | MIC [14]: 25 µg/mL | MIC [15]: 1.56 µg/mL | MIC [16]: > 100 µg/mL | MIC [17]: 3.13 µg/mL | MIC [18]: 1.56 µg/mL | MIC [19]: > 100 µg/mL | MIC [20, 28]: 1.56 µg/mL | MIC ([21]; medium B—TSA): 6.25 µg/mL | MIC ([21]; medium TSA): 6.25 µg/mL | MIC ([22]; Streptococcus mitis): 3.13 µg/mL | MIC [23]: 25 µg/mL | MIC [24]: 12.5 µg/mL

O=C(NC1CN(S(=O)(=O)O)C1=O)[C@H](NC(=O)N1CCN(N=Cc2cccs2)C1=O)c1ccccc1 (stereo partly drawn) [Compound K, Sodium 3-[D-2-[[2-oxo-3-(thiophen-2-aidoimino)-imidazolidin-1-yl]-carboxamido]-2-phenylacetamido]-2-oxoazetidine-1-sulphonate]
MIC [1]: 1.56 µg/mL | MIC [2]: 0.39 µg/mL | MIC [3]: > 100 µg/mL | MIC [4]: > 100 µg/mL | MIC [5]: 3.13 µg/mL | MIC [6]: 1.56 µg/mL | MIC [7, 25]: 0.78 µg/mL | MIC [8]: 0.39 µg/mL | MIC [9, 26]: 3.13 µg/mL | MIC [10]: 1.56 µg/mL | MIC [11]: 50 µg/mL | MIC [12, 27]: 3.13 µg/mL | MIC [13]: > 100 µg/mL | MIC [14]: 50 µg/mL | MIC [15]: 1.56 µg/mL | MIC [16]: > 100 µg/mL | MIC [17]: 0.39 µg/mL | MIC [18]: 1.56 µg/mL | MIC [19]: > 100 µg/mL | MIC [20, 28]: 1.56 µg/mL | MIC ([21]; medium B—TSA): 6.25 µg/mL | MIC ([21]; medium TSA): 6.25 µg/mL | MIC [22, 29]: 1.56 µg/mL | MIC [23]: 12.5 µg/mL | MIC [24]: 12.5 µg/mL

O=C(NC1CN(S(=O)(=O)[O-])C1=O)C(NC(=O)N1CCN(N=Cc2ccco2)C1=O)c1cccs1.[Na+] (centres unmarked) [Compound L, Sodium 3-[2-[(2-oxo-3-furfurylideneaminoimidazolidin-1-yl)-carboxamido]-2-thienylacetamido]-2-oxoazetidine-1-sulphonate]
Minimum inhibitory concentration [1]: 0.78 µg/mL | Minimum inhibitory concentration [2]: 0.2 µg/mL | Minimum inhibitory concentration [3]: >100 µg/mL | Minimum inhibitory concentration ([4]; medium TSA): >100 µg/mL | Minimum inhibitory concentration [5]: 1.56 µg/mL | Minimum inhibitory concentration [6]: 1.56 µg/mL | Minimum inhibitory concentration [7, 25]: 0.78 µg/mL | Minimum inhibitory concentration [8]: <0.1 µg/mL | Minimum inhibitory concentration ([9]; Pseudomonas aeruginosa IFO 3455, medium TSA): 3.13 µg/mL | Minimum inhibitory concentration [10]: 0.78 µg/mL | Minimum inhibitory concentration [11]: 25 µg/mL | Minimum inhibitory concentration [12, 27]: 3.13 µg/mL | Minimum inhibitory concentration [13]: >100 µg/mL | Minimum inhibitory concentration [14]: 50 µg/mL | Minimum inhibitory concentration [15]: 1.56 µg/mL | Minimum inhibitory concentration [16]: >100 µg/mL | Minimum inhibitory concentration [17]: <0.1 µg/mL | Minimum inhibitory concentration [18]: 1.56 µg/mL | Minimum inhibitory concentration [19]: >100 µg/mL | Minimum inhibitory concentration [20, 28]: 1.56 µg/mL | Minimum inhibitory concentration ([21]; medium B—TSA): 6.25 µg/mL | Minimum inhibitory concentration ([21]; medium TSA): 6.25 µg/mL | Minimum inhibitory concentration [22, 29]: 6.25 µg/mL | Minimum inhibitory concentration [23]: 25 µg/mL | Minimum inhibitory concentration [24]: 12.5 µg/mL
